The source of these data is ChEMBL document CHEMBL1135894, “Design and synthesis of a novel and potent series of inhibitors of cytosolic phospholipase A(2) based on a 1,3-disubstituted propan-2-one skeleton” (J Med Chem, 2002).

The test relates to HL-60. As to the kind of experiment: Inhibition of [3H]arachidonic acid production by stimulated HL60 cells. The format is functional, cell-based. As to conditions: Homo sapiens.

As a reminder, the IC50 is the concentration needed to halve the response being measured. Read a low IC50 as inhibition by little substance. In the case of `CCCCCCCCCCOc1ccc(OCC(=O)COc2ccc(C(=O)O)cc2)cc1`, inhibition was half-maximal at 2.8 µM (IC50). This counts as single-digit micromolar. In the case of `CCCCC/C=C\C/C=C\C/C=C\C/C=C\CCCC(=O)C(F)(F)F` [ARACHIDONYL TRIFLUOROMETHYLKETONE], the IC50 worked out at 29 µM.
